The results in this text go back to patent publication US11066421B1, “Synthetic cinchona alkaloids against cancer” (Ares Pharmaceuticals, LLC, priority 2021, dated 2021).

The subject of experiment [1] is leukemia-initiating ALL xenograft cells. In words: Leukemia-initiating ALL xenograft cells treated in vitro and reinjected into NOD/SCID mice. In kind it is in vivo, human. The conditions noted are these: for spleen leukemia burden (nucleated spleen cell count) / spleen size (mean±SE): NOD/SCID mice sacrificed at 85 days. The procedure: Patient derived xenograft mouse models have predictive value for clinical responses (Xu C, Li X, Liu P, Li M and Luo F: Patient-derived xenograft mouse models: A high fidelity tool for individualized medicine (Review). Oncol Lett 17: 3-10, 2019). Xenograft clones isolated from spleens of NOD/SCID mice that developed overt leukemia after inoculation with primary leukemia cells from a B-lineage ALL patient were treated for 24 hours at 37° C. with one of two concentrations of AP-5 (1 μM or 3 μM in phosphate buffered saline [PBS] with 2% DMSO) or vehicle (PBS with 2% DMSO) and then reinjected into NOD/SCID mice (Control group: 9 mice; AP-5 groups: 8 mice per concentration level). Mice were monitored for signs of leukemia, and all mice in a given experiment were sacrificed when any mouse developed morbidity. The animal research in mice was conducted according to approved local IACUC protocols. All animal care procedures conformed to the Guide for the Care and Use of Laboratory Animals (National Research Council, National Academy Press, Washington D.C., USA. Revised 1996). Leukemia cells isolated from deidentified patient specimens were used in the described experiments.
Eight of the 9 control mice challenged with vehicle-treated xenograft cells developed leukemia between 81 and 85 days. All remaining mice were also sacrificed at 85 days. The spleen size and spleen leukemia burden were compared using previously published procedures (F. M. Uckun et al., 2015, J Clin Invest. 125:1006-18). […] The nucleated spleen cell count in these leukemic mice ranged from 192×10^6 to 940×10^6 (median: 576×10^6). The mean±SE values for all 9 control mice was 3.2±0.2 cm for the spleen size and 536.39±94.45×10^6 cells for the spleen leukemia burden (FIG. 4). By comparison, the spleens of mice inoculated with xenograft cells treated with AP-5 at a concentration of 1 μM (mean±SE=1.5±0.1 cm) (P=0.0011) or 3 μM (mean±SE=1.5±0.0 cm) (P=0.0018) were much smaller and contained substantially fewer cells (1 μM group: 7.95±1.11×10^6 cells/P=0.0104; 3 μM group: 5.84±1.07×10^6 cells/P=0.00002). […] FIG. 4 illustrates that AP-5 abrogates the ability of leukemia-initiating ALL xenograft cells to cause leukemia in NOD/SCID mice. The depicted Whisker plots in FIG. 4 represent the median and values (Min to Max. all data points are shown) for spleen size (A), and spleen leukemia burden (B). Kruskall Wallis and Dunn's multiple comparisons test were used for comparing the results among different groups (p<0.05). Statistical significance between groups is shown by the depicted p-values.
Background: In xenograft studies the graft and the host belong to different species.

The test system of experiment [2] is mammary tumors of MMTV/neu transgenic mice. In words: MMTV/neu transgenic mouse model of HER2+ breast cancer. In kind it is in vivo. The conditions noted are these: 9-week observation; AP-8 2 mg/kg i.p. twice daily; paclitaxel 6.7 mg/kg; gemcitabine 33.7 mg/kg. The text has this: The predictive value of genetically engineered mouse (GEM) models to predict the clinical effectiveness of anti-cancer drugs is well established (Richmond A, Su Y. Mouse xenograft models vs GEM models for human cancer therapeutics. Dis Model Mech. 2008; 1(2-3):78-82. doi:10.1241-2/dmm.0.000976). We used the transgenic mouse model of HER2+ chemotherapy-resistant breast cancer to examine the in vivo anti-cancer activity of AP-8. Overexpression of the wild type Neu in the mammary glands of transgenic mice induces metastatic breast cancer. Accordingly, in the MMTV/Neu transgenic strain, the wild-type neu is overexpressed in the mammary gland under the control of the MMTV long terminal repeat. This animal model has been used to analyze the efficacy of new therapeutic approaches to prevent or treat Her2/neu overexpressing malignancies (Uckun, Dibirdik). MMTV/Neu transgenic mice [FVB/N-TgN(MMTV/neu)202MUL; Jackson Laboratory, Bar Harbor, Me.] were bred to produce multiple litters in a controlled SPF environment (12 h light/12 h-dark photoperiod, 22±1° C., 60±10% relative humidity). All mice were housed in microisolator cages (Lab Products, Inc., Maywood, N.Y., USA) containing autoclaved bedding in a controlled specific pathogen-free (SPF) environment (12 h light/12 h-dark photoperiod, 22±1° C., 60±10% relative humidity). Animal studies were approved by the institutional Animal Care and Use Committee of Drug Discovery Enterprises and all animal care procedures conformed to the Guide for the Care and Use of Laboratory Animals of the National Research Council. The genotype of mice was confirmed by multiplex polymerase chain reaction (PCR) tests as previously reported (F. M. Uckun et al., 2007, Bioorganic Med. Chem. 15:800-14; I. Dibirdik et al., 2010, J Nanomed and Nanotechnol. 1:001-4).
Neu transgenic mice carrying one or more tumors were randomly placed in the study. For the evaluation of tumor kinetics, tumor-bearing mice were randomly assigned to either vehicle control or treatment groups. Tumor growth was determined by the measurement of tumors with a caliper in three dimensions three days a week and expressed as tumor volume in cubic millimeters (mm^3). Tumor volumes were calculated using the formula for the volume of a prolate spheroid, V=4/3×3.14×length/2×width/2×depth/2. Due to the large heterogeneity in transgenic tumor volumes on day 0, tumor growth for each mouse was normalized to the starting volume for that particular tumor. Therefore, each mouse also served as its own control, and the tumor growth curves were generated to show the rate of change in tumor volumes.
AP-8 (50 μg˜2 mg/kg in 50 μL DMSO as vehicle) (10 mice, 12 target mammary tumors, Initial average tumor volume=787±125 mm^3) was administered by twice daily intraperitoneal injections on 5 consecutive days per week. Paclitaxel (10 mice, 13 target mammary tumors, Initial average tumor volume=554±79 mm^3) was administered intraperitoneally on days 1, 3, and 5 of each week at a dose level of 6.7 mg/kg ([…]). Gemcitabine (13 mice, 18 target mammary tumors, Initial average tumor volume=549±60 mm^3) was administered intraperitoneally on days 1 and 8 every 4 weeks at a dose level of 33.7 mg/kg (˜1 g/m^2). Control mice (8 mice, 10 mammary tumors, Initial average tumor volume=293±61 mm^3) were treated by twice daily intraperitoneal injections of vehicle alone (50 μL DMSO) on 5 consecutive days per week. […]

The mark [3] stands for this setting: xenograft cells treated 24 h with 1 μM.
Setting [4] is: xenograft cells treated 24 h with 3 μM.

“2,4,6-Tri (9-O-dihydrocinchoninyl)pyrimidine [AP-5]”: in experiment [1] (low micromolar concentration (1 or 3 μM)), the “ability of xenograft cells to initiate leukemia in NOD/SCID mice” value is recorded as “capable of abrogating the ability of the putative leukemic stem cell subpopulation of BPL xenograft cells to initiate leukemia”. Besides, in experiment [1] (setting [3]), the “spleen leukemia burden (nucleated spleen cell count)” value is given as 7.95±1.11 ×10^6 cells and the “spleen size (mean±SE)” value is 1.5±0.1 cm. In addition, in experiment [1] (setting [4]), the “spleen leukemia burden (nucleated spleen cell count)” value is listed as 5.84±1.07 ×10^6 cells and the “spleen size (mean±SE)” value is listed as 1.5±0.0 cm.

For `CCC1CN2CCC1CC2C(Oc1cc(OC(c2ccnc3ccc(OC)cc23)C2CC3CCN2CC3CC)nc(OC(c2ccnc3ccc(OC)cc23)C2CC3CCN2CC3CC)n1)c1ccnc2ccc(OC)cc12` (stereo not drawn) [AP-8, 2,4,6-Tri (9-O-dihydroquinidinyl)pyrimidine], the “tumor shrinkage and tumor growth” value in experiment [2] was “caused shrinkage of the tumor, completely arrested the tumor growth for 4 weeks, and markedly delayed the tumor progression between 4 weeks and 9 weeks”.
